Data on five compounds can be found in patent US11492385B2, “Long-acting co-agonists of the glucagon and GLP-1 receptors” (Merck Sharp & Dohme Corp., priority 2015, dated 2022).

Assay [1] has as its target T1, human GCGR (Homo sapiens, UniProt P47871).
T1 construct: expressed in transfected cells; kept under Blasticidin and Hygromycin selection
Nature of the assay: cAMP activity assay, cells expressing human GCGR. The following applies: for EC50: cAMP production, cells expressing human GCGR, assay buffer with or without 20% human serum (not stated which), read-out: GCGR EC50 human; for hGCGR/hGLP1R (hTone): ratio of human GCGR EC50 to human GLP1R EC50. The class given is cell-based. In a few lines: (§1)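 cAMP production in human GLP1R- or GCGR-expressing cells was read by luminescence after overnight dark incubation at room temperature. Peptides were given as 10-point DMSO dilution series, with native GLP-1 and glucagon as references. Four-parameter logistic fitting gave EC50.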

Assay [2] concerns the target T2, human GLP1R (Homo sapiens, UniProt P43220).
T2 construct: expressed in transfected cells; kept under Blasticidin and Hygromycin selection
Put plainly: cAMP activity assay, cells expressing human GLP1R. The class given is cell-based. The following applies: cAMP production, assay buffer with or without 20% human serum (not stated which). The method, boiled down: as §1

Starred links: 1 amine or outer side, 2 acyl side, 3 side chain; linkers in the order of their positions; H or OH if unused. Non-standard residues stand in square brackets, D forms with d. Residues, ends and D or L forms follow the SMILES beside them. Groups on a side chain read outwards from the residue. *: point of attachment. Phe(4-CH2NH2) = NCc1ccc(C[C@H](N)C(=O)O)cc1; C18 diacid = O=C(O)CCCCCCCCCCCCCCCCC(=O)*; γGlu = O=C(O)[C@H](CCC(=O)[*:2])N[*:1]; Met(O2) = CS(=O)(=O)CC[C@H](N)C(=O)O; αMeD = C[C@](N)(CC(=O)O)C(=O)O; AEEA = NCCOCCOCC(=O)O; Aib = CC(C)(N)C(=O)O

By EC50 is commonly meant the concentration giving half of the maximal effect.

T1 sequence (P47871 26-477): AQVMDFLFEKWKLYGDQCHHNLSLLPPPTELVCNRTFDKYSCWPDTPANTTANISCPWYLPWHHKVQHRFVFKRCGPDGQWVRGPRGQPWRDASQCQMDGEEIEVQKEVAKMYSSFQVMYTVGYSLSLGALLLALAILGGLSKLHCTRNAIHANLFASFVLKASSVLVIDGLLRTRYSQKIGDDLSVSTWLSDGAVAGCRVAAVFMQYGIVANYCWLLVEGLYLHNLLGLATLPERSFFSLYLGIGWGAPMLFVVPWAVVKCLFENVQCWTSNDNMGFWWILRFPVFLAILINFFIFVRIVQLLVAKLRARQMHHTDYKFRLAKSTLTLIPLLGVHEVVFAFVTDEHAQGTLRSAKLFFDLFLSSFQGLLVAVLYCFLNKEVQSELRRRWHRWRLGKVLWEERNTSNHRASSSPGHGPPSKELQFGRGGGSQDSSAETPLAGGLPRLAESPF
T2 sequence (P43220 24-463): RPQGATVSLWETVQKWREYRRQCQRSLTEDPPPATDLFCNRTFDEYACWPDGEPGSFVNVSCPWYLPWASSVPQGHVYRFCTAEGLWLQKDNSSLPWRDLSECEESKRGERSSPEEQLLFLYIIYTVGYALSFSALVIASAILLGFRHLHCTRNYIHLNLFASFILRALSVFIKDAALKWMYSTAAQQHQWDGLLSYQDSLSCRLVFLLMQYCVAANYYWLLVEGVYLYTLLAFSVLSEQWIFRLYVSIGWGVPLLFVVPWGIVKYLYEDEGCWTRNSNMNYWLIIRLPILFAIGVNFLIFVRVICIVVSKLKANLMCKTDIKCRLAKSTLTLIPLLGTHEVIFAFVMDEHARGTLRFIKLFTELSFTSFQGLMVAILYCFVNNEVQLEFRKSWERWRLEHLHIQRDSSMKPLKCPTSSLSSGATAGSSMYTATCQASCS

With `CC(C)C[C@H](NC(=O)[C@H](Cc1ccc(O)cc1)NC(=O)[C@H](CCCCN)NC(=O)[C@H](CO)NC(=O)[C@H](Cc1ccc(O)cc1)NC(=O)[C@H](CC(=O)O)NC(=O)[C@H](CO)NC(=O)[C@@H](NC(=O)[C@H](Cc1ccccc1)NC(=O)[C@@H](NC(=O)CNC(=O)[C@H](CCC(N)=O)NC(=O)C(C)(C)NC(=O)[C@@H](N)Cc1c[nH]cn1)[C@@H](C)O)[C@@H](C)O)C(=O)N[C@@H](CC(=O)O)C(=O)N[C@@H](C)C(=O)N[C@@H](CCCNC(=N)N)C(=O)N[C@@H](C)C(=O)N[C@@H](C)C(=O)N[C@@H](CCC(N)=O)C(=O)N[C@@H](CCCCNC(=O)COCCOCCNC(=O)COCCOCCNC(=O)CC[C@H](NC(=O)CCCCCCCCCCCCCCCCC(=O)O)C(=O)O)C(=O)N[C@@H](Cc1ccccc1)C(=O)N[C@H](C(=O)N[C@@H](CCC(N)=O)C(=O)N[C@@H](Cc1c[nH]c2ccccc12)C(=O)N[C@@H](CC(C)C)C(=O)N[C@@H](CCS(C)(=O)=O)C(=O)N[C@@](C)(CC(=O)O)C(=O)N[C@H](C(N)=O)[C@@H](C)O)C(C)C` [compound 71] (H-H[Aib]QGTFTSDYSKYLDARAAQK([AEEA-AEEA-γGlu-C18 diacid])FVQWL[Met(O2)][αMeD]T-NH2), in assay [1], the EC50 amounted to 0.13 nM and the “hGCGR/hGLP1R (hTone)” value was found to be 1. In assay [2], this compound registered a half-maximal effective concentration (EC50) of 0.17 nM.

In the case of `CC(C)C[C@H](NC(=O)[C@H](Cc1ccc(O)cc1)NC(=O)[C@H](CCCCN)NC(=O)[C@H](CO)NC(=O)[C@H](Cc1ccc(O)cc1)NC(=O)[C@H](CC(=O)O)NC(=O)[C@H](CO)NC(=O)[C@@H](NC(=O)[C@H](Cc1ccccc1)NC(=O)[C@@H](NC(=O)CNC(=O)[C@H](CCC(N)=O)NC(=O)C(C)(C)NC(=O)[C@@H](N)Cc1c[nH]cn1)[C@@H](C)O)[C@@H](C)O)C(=O)N[C@@H](CC(=O)O)C(=O)N[C@@H](C)C(=O)N[C@@H](CCCNC(=N)N)C(=O)N[C@@H](C)C(=O)N[C@@H](C)C(=O)N[C@@H](CCCCNC(=O)COCCOCCNC(=O)COCCOCCNC(=O)CC[C@H](NC(=O)CCCCCCCCCCCCCCCCC(=O)O)C(=O)O)C(=O)N[C@@H](CC(=O)O)C(=O)N[C@@H](Cc1ccccc1)C(=O)N[C@H](C(=O)N[C@@H](CCC(N)=O)C(=O)N[C@@H](Cc1c[nH]c2ccccc12)C(=O)N[C@@H](CC(C)C)C(=O)N[C@@H](CCS(C)(=O)=O)C(=O)N[C@@](C)(CC(=O)O)C(=O)N[C@H](C(N)=O)[C@@H](C)O)C(C)C` [compound 74] (H-H[Aib]QGTFTSDYSKYLDARAAK([AEEA-AEEA-γGlu-C18 diacid])DFVQWL[Met(O2)][αMeD]T-NH2), in assay [1], the concentration for a half-maximal effect (EC50) stood at 0.86 nM and the “hGCGR/hGLP1R (hTone)” value stood at 0.6. Also, the response in assay [2] was half-maximal at 1.39 nM (EC50).

Take `CC(C)C[C@H](NC(=O)[C@H](Cc1ccc(O)cc1)NC(=O)[C@H](CCCCN)NC(=O)[C@H](CO)NC(=O)[C@H](Cc1ccc(O)cc1)NC(=O)[C@H](CC(=O)O)NC(=O)[C@H](CO)NC(=O)[C@@H](NC(=O)[C@H](Cc1ccccc1)NC(=O)[C@@H](NC(=O)CNC(=O)[C@H](CCC(N)=O)NC(=O)C(C)(C)NC(=O)[C@@H](N)Cc1c[nH]cn1)[C@@H](C)O)[C@@H](C)O)C(=O)N[C@@H](CC(=O)O)C(=O)N[C@@H](C)C(=O)N[C@@H](CCCNC(=N)N)C(=O)N[C@@H](C)C(=O)N[C@@H](C)C(=O)N[C@@H](CCC(N)=O)C(=O)N[C@@H](Cc1ccc(CNC(=O)COCCOCCNC(=O)COCCOCCNC(=O)CC[C@H](NC(=O)CCCCCCCCCCCCCCCCC(=O)O)C(=O)O)cc1)C(=O)N[C@@H](Cc1ccccc1)C(=O)N[C@H](C(=O)N[C@@H](CCC(N)=O)C(=O)N[C@@H](Cc1c[nH]c2ccccc12)C(=O)N[C@@H](CC(C)C)C(=O)N[C@@H](CC(C)C)C(=O)N[C@@](C)(CC(=O)O)C(=O)N[C@H](C(N)=O)[C@@H](C)O)C(C)C` [compound 75] (H-H[Aib]QGTFTSDYSKYLDARAAQ[Phe(4-CH2NH2)]([AEEA-AEEA-γGlu-C18 diacid])FVQWLL[αMeD]T-NH2): in assay [1], the EC50 amounted to 0.36 nM and the “hGCGR/hGLP1R (hTone)” value worked out at 0.9. For the same compound, the midpoint of the response in assay [2], the EC50, lay at 0.42 nM.

For the compound `CC(C)C[C@H](NC(=O)[C@H](CC(C)C)NC(=O)[C@H](CCCCN)NC(=O)[C@H](CO)NC(=O)[C@H](Cc1ccc(O)cc1)NC(=O)[C@H](CC(=O)O)NC(=O)[C@H](CO)NC(=O)[C@@H](NC(=O)[C@H](Cc1ccccc1)NC(=O)[C@@H](NC(=O)CNC(=O)[C@H](CCC(N)=O)NC(=O)C(C)(C)NC(=O)[C@@H](N)Cc1c[nH]cn1)[C@@H](C)O)[C@@H](C)O)C(=O)N[C@@H](CC(=O)O)C(=O)N[C@@H](C)C(=O)N[C@@H](CCCNC(=N)N)C(=O)N[C@@H](C)C(=O)N[C@@H](C)C(=O)N[C@@H](CCCCNC(=O)COCCOCCNC(=O)COCCOCCNC(=O)CC[C@H](NC(=O)CCCCCCCCCCCCCCCCC(=O)O)C(=O)O)C(=O)N[C@@H](CC(=O)O)C(=O)N[C@@H](Cc1ccccc1)C(=O)N[C@H](C(=O)N[C@@H](CCC(N)=O)C(=O)N[C@@H](Cc1c[nH]c2ccccc12)C(=O)N[C@@H](CC(C)C)C(=O)N[C@@H](CCS(C)(=O)=O)C(=O)N[C@@H](CC(=O)O)C(=O)N[C@H](C(N)=O)[C@@H](C)O)C(C)C` [compound 76] (H-H[Aib]QGTFTSDYSKLLDARAAK([AEEA-AEEA-γGlu-C18 diacid])DFVQWL[Met(O2)]DT-NH2; N-terminus assumed), in assay [1], the concentration giving a half-maximal response (EC50) came out at 0.74 nM and the “hGCGR/hGLP1R (hTone)” value is 1.2. This compound also had a concentration for a half-maximal effect (EC50) in assay [2] of 0.61 nM.

For the compound `CC(C)C[C@H](NC(=O)[C@H](Cc1ccc(O)cc1)NC(=O)[C@H](CCCCN)NC(=O)[C@H](CO)NC(=O)[C@H](Cc1ccc(O)cc1)NC(=O)[C@H](CC(=O)O)NC(=O)[C@H](CO)NC(=O)[C@@H](NC(=O)[C@H](Cc1ccccc1)NC(=O)[C@@H](NC(=O)CNC(=O)[C@H](CCC(N)=O)NC(=O)C(C)(C)NC(=O)[C@@H](N)Cc1c[nH]cn1)[C@@H](C)O)[C@@H](C)O)C(=O)N[C@@H](CC(=O)O)C(=O)N[C@@H](C)C(=O)N[C@@H](CCCNC(=N)N)C(=O)N[C@@H](C)C(=O)N[C@@H](C)C(=O)N[C@@H](CCC(N)=O)C(=O)N[C@@H](CC(=O)O)C(=O)N[C@@H](Cc1ccccc1)C(=O)N[C@H](C(=O)N[C@@H](CCC(N)=O)C(=O)N[C@@H](Cc1c[nH]c2ccccc12)C(=O)N[C@@H](CC(C)C)C(=O)N[C@@H](CCS(C)(=O)=O)C(=O)N[C@@H](Cc1ccc(CNC(=O)COCCOCCNC(=O)COCCOCCNC(=O)CC[C@H](NC(=O)CCCCCCCCCCCCCCCCC(=O)O)C(=O)O)cc1)C(=O)N[C@H](C(N)=O)[C@@H](C)O)C(C)C` [compound 77] (H-H[Aib]QGTFTSDYSKYLDARAAQDFVQWL[Met(O2)][Phe(4-CH2NH2)]([AEEA-AEEA-γGlu-C18 diacid])T-NH2; N-terminus assumed), in assay [1], the concentration for a half-maximal effect (EC50) was 1.09 nM and the “hGCGR/hGLP1R (hTone)” value was found to be 2.3. Also, in assay [2], the concentration giving a half-maximal response (EC50) was determined as 0.47 nM.
